From patent US20230065953A1, “NOVEL HETEROARYL-TRIAZOLE COMPOUNDS AS PESTICIDES” (Bayer Aktiengesellschaft, priority 2019, published 2023)

Legend:
Format in all cases: in vivo
[1] = tested on: green peach aphid (Myzus persicae); assay: Myzus persicae spray test; settings: foliar, 120 h, Chinese cabbage leaf disks, after 5 days
Outline: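 Percent mortality read 5 days after spraying, where 100% is total kill and 0% none. The spray contained compound in acetone plus dimethylformamide, diluted with 1000 ppm emulsifier water. It was applied to Brassica pekinensis leaf disks carrying mixed-instar green peach aphids.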

[2] = tested on: larvae of the banded cucumber beetle (Diabrotica balteata); assay: Diabrotica balteata spray test; settings: 168 h, 100 g/ha (=32 μg/well), wheat seeds, after 7 days, read-out: efficacy (seedling growth)
Outline: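 Efficacy in % was read 7 days after infesting with 10-20 larvae per unit. Before infestation, 1-day-germinated wheat seedlings (5 per well) were sprayed with the active ingredient, formulated in acetone and dimethylformamide plus emulsifier and diluted with water containing emulsifier.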

[3] = tested on: fall armyworm larvae (Spodoptera frugiperda); assay: Spodoptera frugiperda spray test (maize leaf sections); settings: 168 h
Outline: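 Percent kill of Spodoptera frugiperda caterpillars read at day 7. Larvae placed on dried Zea mays leaf pieces previously sprayed with test preparation, made from acetone plus DMF and diluted with emulsifier-containing water (1000 ppm).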

[4] = tested on: adult mosquitoes Aedes aegypti strain MONHEIM; assay: Aedes aegypti test (AEDSAE surface treatment & contact assay); settings: 24 hours after contact, read-out: efficacy (mortality); for mortality at 4 mg/m2: surface concentration 4 mg/m^2, 30 min exposure; for mortality at 20 mg/m2: surface concentration 20 mg/m^2, 30 min exposure
Outline: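 Test compound in acetone (2 mg/ml) with 2000 ppm rapeseed oil methyl ester was dried onto a glazed tile. Adult Aedes aegypti MONHEIM were exposed to the treated surface for 30 minutes. Percent mortality was scored 24 hours after contact.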

[5] = tested on: adult flies Musca domestica strain WHO-N; assay: Musca domestica test (MUSCDO surface treatment & contact assay); settings: 24 hours after contact, read-out: efficacy (mortality); for mortality at 4 mg/m2: surface concentration 4 mg/m^2, 30 min exposure; for mortality at 20 mg/m2: surface concentration 20 mg/m^2, 30 min exposure
Outline: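 Percent kill read 24 h post-contact, after adult flies (strain WHO-N) spent 30 min on a glazed tile treated with test solution (acetone, 2 mg/ml, plus 2000 ppm rapeseed oil methyl ester) and dried.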

[6] = tested on: adult mosquitoes Anopheles funestus strain FUMOZ-R; assay: Anopheles funestus test (ANPHFU surface treatment & contact assay); settings: 24 hours after contact, read-out: efficacy (mortality); for mortality at 20 mg/m2: surface concentration 20 mg/m^2, 30 min exposure; for mortality at 4 mg/m2: surface concentration 4 mg/m^2, 30 min exposure
Method: Anopheles funestus Test (ANPHFU Surface Treatment & Contact Assay) • Solvent: Aceton+2000 ppm rapeseed oil methyl ester (RME)
In order to produce a sufficient, active ingredient containing solution it is necessary to solve the test compound in the solvent-mix (acetone at 2 mg/ml/RME 2000 ppm). This solution is pipetted onto a glazed tile and after evaporation of the acetone, adult mosquitoes of the species Anopheles funestus strain FUMOZ-R (Hunt et al., Med. Vet. Entomol. 2005 September; 19(3): 271-275) are placed onto the dried surface. The exposure time is 30 minutes.
Mortality in percent (%) is determined 24 hours after contact of the insects to the treated surface. 100% mortality means that all tested insects are dead, whereas 0% means that no insect died.

[7] = tested on: Rhipicephalus microplus larvae (strain Parkhurst, resistant against synthetic pyrethroids); assay: Rhipicephalus (Boophilus) microplus in-vitro contact test, larval cattle tick; settings: 5 μg/cm^2 (=500 g/ha), after 48 hours, read-out: efficacy (larvae dead or moribund)
Outline: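 Larvae exposed by contact to a dried acetone film on glass; a 900 ppm solution yields 5 μg/cm^2. Scoring after 48 h at 27° C. counts dead plus moribund larvae as efficacy.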

[8] = tested on: adult cat fleas (Ctenocephalides felis); assay: Ctenocephalides felis in-vitro contact test, adult cat flea; settings: 5 μg/cm^2 (=500 g/ha), after 48 hours
Outline: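 After 48 h of room-temperature exposure in tubes whose walls carried dried compound residue (5 μg/cm^2, from 900 ppm acetone solution), adult cat fleas (5-10 per tube) were heat-challenged at 45-50° C up to 5 min. Fleas unable to climb away were counted dead or moribund, expressed as % efficacy.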

[9] = tested on: brown planthopper (Nilaparvata lugens); assay: Nilaparvata lugens spray test; settings: 96 h, rice plants, after 4 days
Method: Nilaparvata lugens—Spray Test • Solvent: 78.0 parts by weight of acetone • 1.5 parts by weight of dimethylformamide • Emulsifier: alkylarylpolyglycol ether
To produce a suitable preparation of active compound, 1 part by weight of active compound is mixed with the stated amount of solvents and is diluted with water, containing an emulsifier concentration of 1000 ppm, to the desired concentration. Further test concentrations are prepared by dilution with emulsifier containing water.
Rice plants (Oryza sativa) are sprayed with a preparation of the active ingredient of the desired concentration and the plants are infested with the brown planthopper (Nilaparvata lugens).
After 4 days mortality in % is determined. 100% means all planthoppers have been killed and 0% means none of the planthoppers have been killed.

[10] = tested on: adult unfed cat fleas (Ctenocephalides felis); assay: Ctenocephalides felis oral test; settings: 48 h
Outline: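 About 20 adult unfed fleas fed through parafilm on cattle blood containing compound (DMSO stock diluted in blood), blood held at 37 °C and fleas at room temperature. Mortality (%) scored after 2 days.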

[11] = tested on: adult engorged female ticks (Rhipicephalus microplus); assay: Rhipicephalus (Boophilus) microplus injection test; settings: 168 h, egg deposition after 7 days, read-out: efficacy (infertile eggs); for pest or weed control at 0.004 mg: 4 μg/animal
Outline: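 Five adult engorged female ticks each injected into the abdomen with 1 μL of compound in DMSO, then kept in a climate chamber. Fertile egg deposition assessed after 7 days, with unclear eggs held until hatching around 42 days; efficacy 100% means all eggs infertile, 0% all fertile.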

[12] = tested on: adult brown dog ticks (Rhipicephalus sanguineus); assay: Rhipicephalus sanguineus in-vitro contact test with adult brown dog ticks; settings: 5 μg/cm^2 (=500 g/ha), after 48 hours, read-out: efficacy (ticks dead or moribund)
Method: Rhipicephalus sanguineus—In-Vitro Contact Tests with Adult Brown Dog Ticks
9 mg compound is solved in 1 mL acetone and diluted with acetone to the desired concentration. 250 μL of the test solution is filled in 25 mL glass test tubes and homogeneously distributed on the inner walls by rotation and tilting on a shaking device (2 h at 30 rpm). With a compound concentration of 900 ppm, an inner surface of 44.7 cm^2 and a homogeneous distribution, a dose of 5 μg/cm^2 is achieved.
After the solvent has evaporated, each test tube is filled with 5-10 adult brown dog ticks (Rhipicephalus sanguineus), closed with a perforated lid and incubated in a lying position at room temperature and relative humidity. After 48 hours efficacy is determined. The ticks are patted on the ground of the tubes and are incubated on a heating plate at 45-50° C. for at most 5 minutes. Immotile or uncoordinated moving ticks, which are not able to escape the heat by climbing upwards, are marked as dead or moribund.
An efficacy of 100% means all ticks are dead or moribund; 0% means no ticks are dead or moribund.

[13] = tested on: green peach aphid (Myzus persicae); assay: Myzus persicae oral test; settings: 120 h
Outline: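 Compound was dissolved in acetone, diluted with water and mixed into IPL41 insect medium with sugar under a parafilm seal. A mixed aphid population fed through the parafilm, and mortality (%) was scored after 5 days.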

[14] = tested on: larvae of the southern green stink bug (Nezara viridula); assay: Nezara viridula spray test; settings: in Hordeum vulgare, 96 h
Outline: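 Mortality (%) of stink bug larvae on treated barley (Hordeum vulgare) was scored 4 days after infestation. Test solutions came from an acetone/DMF concentrate diluted with water containing 1000 ppm emulsifier and were sprayed onto plants before larvae were added.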

Structure (SMILES) | mortality at 100 g/ha [1] [%] | pest or weed control at 32 µg/disc, 100 g/ha [2] [%] | mortality at 100 g/ha [3] [%] | mortality at 4 mg/m2 [4] [%] | mortality at 20 mg/m2 [4] [%] | mortality at 4 mg/m2 [5] [%] | mortality at 20 mg/m2 [5] [%] | mortality at 20 mg/m2 [6] [%] | pest or weed control at 5 µg/cm2 [7] [%] | efficacy (fleas dead or moribund) [8] [%] | mortality at 100 g/ha ([9]; 100 g/ha) [%] | mortality at 100 ppm [10] [%] | pest or weed control at 0.004 mg [11] [%] | pest or weed control at 5 µg/cm2, 500 g/ha [12] [%] | mortality at 4 ppm [13] [%] | pest or weed control at 0.02 mg ([11]; 20 μg/animal) [%] | mortality at 4 mg/m2 [6] [%] | mortality at 100 g/ha [14] [%] | mortality at 500 g/ha [14] [%] | mortality at 500 g/ha ([9]; 500 g/ha) [%]
CC(NC(=O)c1cc(OC(F)(F)F)cc(C2(C#N)CC2)c1)c1ncnn1-c1ncc(C#N)s1 (racemic) [I-87, (rac)-3-(1-cyanocyclopropyl)-N-{1-[1-(5-cyano-1,3-thiazol-2-yl)-1H-1,2,4-triazol-5-yl]ethyl}-5-(trifluoromethoxy)benzamide] | 100 | 100 | 100 | 80 to 100 | 80 to 100 | 90 to 100 | 80 to 100 | 80 to 100 |  |  |  |  |  |  |  |  |  |  |  | 
Cc1nc([C@H](C)NC(=O)c2cc(C(F)(F)F)cc(C(F)(F)F)c2)n(-c2ncc(C(=O)N(C)C(C)C)s2)n1 [I-10] |  | 100 | 100 |  |  |  |  |  | 100 | 90 | 90 | 100 | 100 | 100 |  |  |  |  |  | 
CC(NC(=O)c1cc(OC(F)(F)F)cc(C(F)F)c1)c1ncnn1-c1ncc(C#N)s1 (stereo not drawn) [I-26] |  | 100 | 100 |  | 80 to 100 | 90 to 100 | 80 to 100 | 80 to 100 | 100 | 100 |  | 100 | 100 |  | 100 |  |  |  |  | 
C[C@H](NC(=O)c1cc(Cl)cc(S(C)(=O)=O)c1)c1ncnn1-c1ncc(C#N)s1 [I-36] |  | 100 | 100 | 80 to 100 | 80 to 100 |  |  |  | 90 | 100 |  | 100 | 100 |  | 100 | 100 | 80 to 100 |  |  | 
C[C@H](NC(=O)c1cc(C(F)(F)F)cc(S(C)(=O)=O)c1)c1ncnn1-c1ncc(C(=O)N(C)C)s1 [I-65] | 100 | 100 | 100 |  |  |  |  |  |  | 100 |  |  |  |  |  |  |  | 100 | 100 | 90
C[C@H](NC(=O)c1cc(Cl)cc(C(F)(F)Cl)c1)c1ncnn1-c1ncc(C#N)s1 [I-85] | 100 | 100 | 100 | 80 to 100 | 80 to 100 | 90 to 100 | 80 to 100 | 80 to 100 |  |  |  |  |  |  |  |  | 80 to 100 |  |  | 
